Measured values published in patent US7465755B2, “Hydrazide derivatives as prostaglandin receptors modulators” (Laboratoires Serono SA, priority 2003, dated 2008).

Legend:
h-EP2 [1] = target: T1, h-EP2 (Homo sapiens, UniProt P43116); assay: Prostaglandin EP2 receptor binding assay (3H-PGE2 SPA); settings: EP2 receptor membranes, 20 nM 3H-PGE2, pH 6.0, 2 hrs room temperature
Experimental: Compounds of the invention were tested in an EP2 receptor binding assay of the following protocol. As referred to herein, the term an “EP2 receptor binding assay” designates the following protocol.
(§1) A mixture containing 20 μg of EP2 receptor membranes, 0.5 mg of wheat germ agglutinin coated PVT-SPA beads, with or without compound of the invention (25 μl per well) or 10 μM of cold PGE2 at 1% DMSO and 20 nM ^3H-PGE2 in assay buffer containing 25 mM MES, 10 mM MgCl2, 1 mM EDTA, pH 6.0 are incubated in Corning 3600 plates on a plate shaker for 2 hrs at room temperature. ^3H-PGE2 binding is evaluated by counting the plates on the top count using the ^3H SPA dpm2 program. The percentage of binding and Ki value for inhibitors are calculated based on the one site competition parameter using the Graphpad® prism program.

h-EP4 [2] = target: T2, h-EP4 (Homo sapiens, UniProt P35408); assay: EP4 receptor binding assay (3H-PGE2 SPA); settings: EP4 receptor membranes, 20 nM 3H-PGE2, pH 6.0, 2 hrs room temperature
Experimental: Compounds of the invention were tested in an EP4 receptor binding assay of the following protocol.
as §1, with “EP4” for “EP2”, “compounds” for “compound”

h-EP4 [3] = target: T2, h-EP4; assay: EP4 total cAMP assay in HEK293-EBNA cells transfected with hEP4; type: cell-based; settings: 1 hour 37° C.
Experimental: (§2) Compounds of the invention are tested in a total cAMP assay as follows. HEK293-EBNA cells transfected with pCFP4-hEP4 receptors are seeded in 96 well opaque plate (Costar #3917) at 4×10^4 cells per well in 100 μl of culture medium (D-MEM/F12 supplemented with 10% FBS, […] L-glutamine, and 250 μg/ml of hygromycin; all from Gibco BRL) and incubated at 37° C. After overnight incubation, the medium is removed from each well and replaced with 45 μl of assay medium consisted of phenol red free D-MEM/F-12, 0.1% BSA (Gibco BRL) and 0.1 mM 3-isobutyl-1-methyl-xanthine (Sigma). After 15 minutes of incubation at 37° C., 16-16-dimethyl PGE-2 or compounds at desired concentrations in 20 μl of assay medium are added to cells and further incubated at 37° C. for 1 hour. Total cAMP (intra- and extra-cellular) is measured by using a cAMP-screen ELISA System (Tropix, #CS1000).

h-EP2 [4] = target: T1, h-EP2; assay: EP2 total cAMP assay in HEK293-EBNA cells transfected with pCEP4-hEP2; type: cell-based; settings: 1 hour 37° C.
Experimental: Therefore, the compounds of the invention are tested for their ability in modulating cAMP levels in cells over-expressing EP2 or EP4 (Example 25 below) receptors.
as §2, with “pCEP4-hEP2” for “pCFP4-hEP4”

[5] = tested on: hepatitis B viral replication; settings: oral administration, chronic hepatitis B patients; cited from earlier work

T2 sequence (P35408 whole entry): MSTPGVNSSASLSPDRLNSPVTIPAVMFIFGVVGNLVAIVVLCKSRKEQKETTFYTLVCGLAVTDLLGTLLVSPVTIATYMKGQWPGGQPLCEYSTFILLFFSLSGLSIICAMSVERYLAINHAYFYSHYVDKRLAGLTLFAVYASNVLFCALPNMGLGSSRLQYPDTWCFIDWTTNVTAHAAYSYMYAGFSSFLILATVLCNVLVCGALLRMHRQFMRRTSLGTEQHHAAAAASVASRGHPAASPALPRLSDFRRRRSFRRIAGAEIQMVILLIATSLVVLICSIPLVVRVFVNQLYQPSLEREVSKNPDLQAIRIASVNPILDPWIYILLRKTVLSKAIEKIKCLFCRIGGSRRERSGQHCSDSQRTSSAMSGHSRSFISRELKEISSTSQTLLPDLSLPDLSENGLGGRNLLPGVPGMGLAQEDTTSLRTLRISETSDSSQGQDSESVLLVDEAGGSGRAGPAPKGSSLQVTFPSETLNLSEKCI
T1 sequence (P43116 whole entry): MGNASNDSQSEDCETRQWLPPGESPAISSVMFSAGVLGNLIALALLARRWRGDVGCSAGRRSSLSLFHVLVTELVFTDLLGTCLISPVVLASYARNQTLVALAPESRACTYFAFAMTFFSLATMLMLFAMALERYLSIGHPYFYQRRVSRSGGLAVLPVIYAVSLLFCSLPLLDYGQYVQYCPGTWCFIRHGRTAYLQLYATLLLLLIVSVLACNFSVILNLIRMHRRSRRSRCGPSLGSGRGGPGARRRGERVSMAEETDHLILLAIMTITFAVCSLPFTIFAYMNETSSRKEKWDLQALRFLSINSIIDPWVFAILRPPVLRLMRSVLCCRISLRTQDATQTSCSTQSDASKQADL

| SMILES | Ki (h-EP2 [1]) | Ki (h-EP4 [2]) | other results |
| --- | --- | --- | --- |
| CC(=O)N(CCc1ccc(C(=O)O)cc1)NCCC(O)Cc1cccc(C#Cc2ccccc2)c1 (stereo not drawn) [Example 7, 4-[2-(1-acetyl-2-{3-hydroxy-4-[3-(phenylethynyl)phenyl]butyl}hydrazino)ethyl]benzoic acid] | 4.21 µM | 45 nM | EC50 (h-EP4 [3]): 0.15 nM |
| CC(=O)N(CCc1ccc(C(=O)O)cc1)NCCC(O)Cc1cccc(-c2ccccc2)c1 (stereo not drawn) [Example 8, 4-(2-{1-acetyl-2-[4-(1,1′-biphenyl-3-yl)-3-hydroxybutyl]hydrazino}ethyl)benzoic acid] |  | 115 nM |  |
| CCCCCC(O)CCNN(CCc1ccc(C(=O)O)cc1)C(C)=O (stereo not drawn) [Example 2, 4-{2-[1-acetyl-2-(3-hydroxyoctyl)hydrazino]ethyl}benzoic acid] | 32.9 µM | 400 nM | EC50 (h-EP2 [4]): 6.03 µM |
| CC(=O)N(CCc1ccc(C(=O)O)cc1)NCCC(O)Cc1cccc(I)c1 (stereo not drawn) [Example 10, 4-(2-{1-acetyl-2-[3-hydroxy-4-(3-iodophenyl)butyl]hydrazino}ethyl)benzoic acid] |  | 97 nM |  |
| CCCCC[C@H](O)/C=C/[C@H]1[C@H](O)CC(=O)[C@@H]1C/C=C\CCCC(=O)O [PGE2, Prostaglandin E2] |  |  | patients with sustained loss of viral replication [5]: 47% |
| C#Cc1cccc(CC(O)CCNN(CCc2ccc(C(=O)O)cc2)C(C)=O)c1 (stereo not drawn) [Example 16, 4-(2-{1-acetyl-2-[4-(3ethynylphenyl)-3-hydroxybutyl]hydrazino}ethyl) benzoic acid] |  | 131 nM |  |

More lines, main results first:

| Ki (h-EP2 [1]) | Ki (h-EP4 [2]) | SMILES | other results |
| --- | --- | --- | --- |
| 4.45 µM | 530 nM | CC(=O)N(CCc1ccc(C(=O)O)cc1)NCCC(O)Cc1cccc(C(F)(F)F)c1 (stereo not drawn) [Example 4, 4-[2-(1-acetyl-2-{3hydroxy-4-[3-(trifluoromethyl)phenyl]butyl}hydrazino)ethyl]benzoic acid] | EC50 (h-EP4 [3]): 0.4 nM |
|  | 332 nM | CC(C)C(=O)N(CCc1ccc(C(=O)O)cc1)NCCC(O)Cc1cccc(C(F)(F)F)c1 (stereo not drawn) [Example 6, 4-[2-(2-{3-hydroxy-4-[3-(trifluoromethyl)phenyl]butyl}-1-isobutyryl hydrazino)ethyl]benzoic acid] |  |
|  | 149 nM | CC(=O)N(CCc1ccc(C(=O)O)cc1)NCCC(O)Cc1cccc(Br)c1 (stereo not drawn) [Example 9, 4-(2-{1-acetyl-2-[4-(3-bromophenyl)-3-hydroxybutyl]hydrazino}ethyl) benzoic acid] |  |
